Assay results published in US20120225097A1, “PIPERAZINECARBOXAMIDE DERIVATIVE USEFUL AS A MODULATOR OF FATTY ACID AMIDE HYDROLASE (FAAH)” (priority 2009, published 2012).
Counter-ions that a name gives are not always drawn.

System: heart muscle
Experiment: Assay Method 4: rat screening toxicity protocol
Assay type: in vivo
Conditions: 300 mg/kg daily oral, up to 4 days, male rats
Procedure: Rat Screening Toxicity Protocol
Male Crl:CD® (SD) rats approximately 8 weeks of age and weighing approximately 200 to 350 grams at initiation of dosing, were supplied by Charles River Laboratories, Hollister, Calif. Rats were individually housed in solid bottom plastic cages with 0.25 inch Cobb Bedding. Study rooms were maintained on a 12-hour light/dark cycle, with a temperature range of 64 to 79° F., and a relative humidity range of 30 to 70%. Rats were fed ad libitum (except where noted) with Rodent Diet 5008 supplied by PMI® Nutrition International, Richmond, Ind. Water was provided ad libitum by an automatic watering system and/or water bottles. The animals were quarantined for at least 5 days (prior to treatment period). Rats were selected on the basis of predose evaluations and randomly assigned to groups using a computer-generated randomization method based on body weight.
A vehicle treated group was dosed to match the highest dose volume (mL/kg) used. The test compound was administered orally daily. Test compounds were stored at room temperature. 4-({3-[(4-chlorophenyl)oxy]phenyl}methyl)-N-pyridin-3-ylpiperazine-1-carboxamide was dosed in solution using 20% cyclodextrin as the vehicle. N-pyridin-3-yl-4-{3-[4-(trifluoromethyl)phenoxy]benzyl}piperazine-1-carboxamide bis-hydrochloride dihydrate was dosed in solution using water as the vehicle. Rats in the vehicle treated and test article treated were dosed for up to 4 days. Mortality checks were performed at least once a day on all animals pre-dose and post-dose. Clinical observations were performed at least once during the pre-dose period. Clinical observations were recorded prior to dosing, at least once after daily dosing, and prior to scheduled necropsy for animals assessed for toxicology. Body Weights were determined at least once during the pre-dose period, prior to the first dose, once during dose administration and once after the last dose, and once prior to necropsy for tissue body weight ratios. […] Observations were recorded at necropsy and tissue trimming. […] Clinical pathology was not determined on these animals. […]

Row | Structure (SMILES) | lesions in heart muscle | lesions in heart muscle (listed as N-pyridin-3-yl-4-{3-[4-(trifluoromethyl)phenoxy]benzyl}piperazine-1-carboxamide , bis-hydrochloride dihydrate) | lesions in heart muscle (listed as N-pyridin-3-yl-4-{3-[4-(trifluoromethyl)phenoxy]benzyl}piperazine-1-carboxamide, bis-hydrochloride dihydrate)
1 | O=C(Nc1cccnc1)N1CCN(Cc2cccc(Oc3ccc(Cl)cc3)c2)CC1 [4-({3-[(4-Chlorophenyl)oxy]phenyl}methyl)-N-pyridin-3-ylpiperazine-1-carboxamide] | developed lesions in heart muscle |  | 
2 | O=C(Nc1cccnc1)N1CCN(Cc2cccc(Oc3ccc(C(F)(F)F)cc3)c2)CC1 [Example 1, N-Pyridin-3-yl-4-{3-[4-(trifluoromethyl)phenoxy]benzyl}piperazine-1-carboxamide, bis-hydrochloride dihydrate] |  | absent | lacked such lesions
